In brackets after ≈: the same amount, converted by molar mass. Like-named read-outs stand apart in the source and are kept apart here.
Experiments:
[1] = Incorporation efficiency (EE) in liposomes prepared by hydration of a lipid and drugs film; type: physicochemical
Description: Different lipids (20 μmol) and the prodrug (2 μmol) were weighed out, transferred to a round-bottom flask, dissolved in chloroform and the organic solvent evaporated using a rotating evaporator to form a lipid film. This film was then dried in a vacuum bomb for the removal of chloroform residues and 1 ml of isotonic phosphate pH 7.4 buffer (PBS) was added at a temperature at least 10° C. higher than the phase transition temperature (TC) of the lipids used. The mixture was stirred for an additional five minutes to complete hydration of the lipid film and, after a few minutes at rest, it was stirred again for a further five minutes.
In order to determine the incorporation efficiency (EE), aliquots of the liposomal suspension after hydration and of the liposomal suspension obtained after centrifugation, supernatant removal and re-suspension of the sediment in its original volume (before being centrifuged) were collected. The EEs were calculated as the ratio between the prodrug concentration in the re-suspended liposome suspension and the prodrug concentration in the initial liposome suspension. Tables 2 to 6 show the EE values obtained for several formulations of different prodrugs.
All the prepared suspensions were checked using an optical phase contrast microscope set at 400× magnification.

[2] = Incorporation efficiency (EE) in liposomes prepared by hydration of a lipid and prodrugs lyophilisate; type: physicochemical; settings: hydration of lipids and prodrugs lyophilisate
Description: Solutions were prepared containing 20 μmol of lipids and 2 μmol of prodrug in 10 ml of tert-butanol and were filtered by sterile filtration. These solutions were then frozen in liquid nitrogen and lyophilised for 24 hours.
After lyophilisation, the solutions were hydrated by the addition of 1 ml of PBS at a temperature of at least 10° C. higher than that of the phase transition temperature (TC) of the lipids, using an ultrasound water bath for two minutes. The incorporation efficiencies (EE) were calculated as described above for the liposome preparation carried out by hydration of a lipid film and are shown in Table 7.
All the suspensions produced were checked using an optical microscope set at 400× magnification.

in vitro [3] = type: in vitro ADME; settings: human, plasma
Description: 750 μl of plasma, 700 μl of PBS and 50 μl of stock solution of the compound (3.6×10^−3M) were added to each one of the test compounds in the free form in a test tube. The tube was incubated at 37° C. under agitation, and 150 μl aliquots were removed every five minutes, diluted with 600 μl of acetonitrile (ACN), and then centrifuged. The supernatant was removed and injected into an HPLC system. The area values obtained for each chromatogram were used to determine the half-life of each prodrug.
To each liposomal suspension in a test tube, 750 μl of plasma was added and diluted with PBS to a final volume of 3000 μl. The final drug concentration in each tube was 2×10^−3 M. The test tubes were then incubated at 37° C. with agitation and 150 μl aliquots were then removed at set time intervals, diluted with 600 μl of acetonitrile (ACN), and then centrifuged. For the remainder of the process, the same procedure was followed as described above for the free form case.

in vitro [4] = type: in vitro ADME; settings: rat, tissue homogenate
Description: For each of the compounds in free form, 50 μl of rat liver homogenate, 1400 μl of PBS and 50 μl of compound stock solution were added (3.6×10^−3 M) in a test tube. The tubes were incubated at 37° C. under agitation, and aliquots of 150 μl were removed every minute, diluted with 600 μl of acetonitrile (ACN), and then centrifuged. The supernatant was removed and placed into the vials of an autosampler and analysed by HPLC.
To each liposomal suspension in a test tube, 50 μl of homogenate was added and diluted with PBS to a final volume of 1500 μl. The final drug concentration was 2×10^−3 M. The test tubes were incubated at 37° C. under agitation and sample collection and analysis were carried out by the same procedure used for determining the stability of liposomal drugs in plasma.

[5] = tested on: Mycobacterium tuberculosis H37Ra; assay: Determination of the Minimum Inhibitory Concentration (MIC) by successive dilutions; type: cell-based; settings: for MIC: broth, pH 5.5, about 21 days at 37° C.; for fold lower MIC values than those for PZA and POA: in vitro, pH 5.5
Description: Mycobacterium tuberculosis H37Ra was used as the reference strain. The esters C12, C14 and C16, pyrazinamide (PZA) and pyrazinoic acid (POA) were prepared in stock solutions of dimethyl sulfoxide (DMSO) at a concentration of 8 mg/ml. The Minimum Inhibitory Concentration was determined by the method of successive dilutions. The culture medium Myco (nutrient Broth-Difco, 10 g/L; Middlebrook 7H9-Difco, 10 g/L, 0,05% glucose and 0.01% of Tween 80) supplemented with OADC (Difco) was used and the pH was adjusted to 5.5.
To each test tube of each stage of the successive dilutions of the test compound, a sufficient volume of bacterial inoculum was added so as to provide a final concentration of 10^4 CFU/ml (CFU=Colony Forming Units). The tubes were incubated for about 21 days at 37° C. The onset of turbidity in the control tube (free of drugs) was checked for on a regular basis. Once turbidity appeared in the control test tube, the results were recorded where the MIC value was defined as the lowest concentration of drug able to inhibit the growth of mycobacteria (note there was a total absence of turbidity in the first test tube of the successive dilution sequence). These tests were performed in triplicate for each test compound. As expected, the MIC for PZA was 100 μg/ml.

M. tuberculosis H37Ra = assay: Antimycobacterial activity of free and encapsulated compounds in macrophage infected with Mycobacterium tuberculosis; type: cell-based; settings: infected J774.A1 macrophage
Description: In evaluating the antimycobacterial activity, a conventional method (Anes et al., Nat Cell Biol, 2003) was employed using a cell culture of […] (cell line J774.A1).
Briefly, the macrophage was plated in a DMEM medium having a high glucose concentration and supplemented with 10% Foetal Bovine Serum, in 24 well tissue culture plates at 37° C. in a 5% carbon dioxide atmosphere. As soon as about 80% confluence was obtained, the cells were infected with M. tuberculosis H37Ra at a rate such that an inoculum concentration of 10^6 mycobacteria/ml per well was obtained.
After 3 hours of bacterial uptake, 1 to 5 bacillus per infected cell and a total of about 10E4-5 bacteria/ml were expected per well. Washing of the infected cultures with pH 7 buffer PBS was then carried out three times in order to eliminate all bacteria non internalised by the macrophage. Fresh DMEM medium was added with and without the test compound.
The incubation period was 7 days using fresh medium every 3 days. The compounds were added after 3 hours of internalization and remained in contact with the infected cells until fresh medium DMEM was added.
After 3 hours, 1 day, 3 days, 5 days and 7 days from the beginning of the infection, intracellular bacteria were recovered for lyses of the infected macrophage with a 1% IGEPAL solution (Sigma) in water. At this concentration, macrophage are lysed with no effect on the viability of the mycobacteria.
After successive dilutions of the lysate with water, the surviving bacteria were cultured in Middlebrook 7H10 medium supplemented with OADC (Difco). After about 2 weeks of incubation at 37° C. the Unity Forming Colonies (UFCs) were counted. Each test was carried out in triplicate in independent experiments.

[6] = lipid formulation DMPC:DMPG (9:1)
[7] = pH 7.4, Half-life (min) Free form
[8] = pH 7.4, Half-life (min) Vesicular form (DMPC)
[9] = Mycobacterium tuberculosis, H37RA, 504 h, pH 5.5, M. tuberculosis H37Ra, read-out: MIC

SMILES | EE (%) incorporation efficiency ([1]; lipid formulation DMPC) | EE (%) incorporation efficiency ([1]; lipid formulation DPPC) | EE (%) incorporation efficiency ([2]; lipid formulation DMPC) | half-life (in vitro [3]; [7]) | half-life (in vitro [3]; [8]) | half-life (in vitro [4]; [7]) | half-life (in vitro [4]; [8]) | MIC [5, 9] | intracellular bacterial growth after 7 days of infection (M. tuberculosis H37Ra) | further results
CCCCCCCCCCCCOC(=O)c1cnccn1 [Compound C12, dodecyl pyrazinoate] | 94.7% | 93.1% | 95.6% | 15 min | 78 min | 2 min | 54 min | 20 to 40 µg/mL (≈ 68.4 to 137 µM) | latency was observed | EE (%) incorporation efficiency ([1]; lipid formulation DMPC:DMPG (7:3)): 82.7%; EE (%) incorporation efficiency [1, 6]: 87.0%; EE (%) incorporation efficiency ([1]; lipid formulation DPPC:DPPG (7:3)): 90.2%; EE (%) incorporation efficiency ([1]; lipid formulation DPPC:DPPG (9:1)): 87.2%; fold lower MIC values than those for PZA and POA [5]: 10 fold; difference in bactericidal effect between DPPC and DMPC formulations (M. tuberculosis H37Ra; liposomal forms): no such significant differences; increase of bactericidal effect by encapsulation in liposomes relatively to free form (M. tuberculosis H37Ra; FIG. 1B): about 50%; bactericidal effect, comparison of compounds (M. tuberculosis H37Ra; free or vesicular form, FIG. 2A, 2B): greatest bactericidal effect
CCCCCCCCCCCCCCCCNC(=O)c1cnccn1 [Compound A16, hexadecyl pyrazinamide] | 97.0% |  |  |  |  |  |  |  |  | EE (%) incorporation efficiency ([1]; lipid formulation DMPG:DMPG 9:1): 98.4%; EE (%) incorporation efficiency ([1]; lipid formulation DPPM): 98.1%
O=C(O)c1cnccn1 [POA, pyrazinoic acid, reference compound] |  |  |  |  |  |  |  | 100 to 200 µg/mL (≈ 806 to 1610 µM) | bacteria recovered their ability of intracellular growth | 
CCCCCCCCOC(=O)C=Cc1ccccc1 [CO, octyl cinnamate] | 92.2% | 94.5% |  |  |  |  |  |  |  | 
CCCCCCCCCCCCCCCCOC(=O)c1cnccn1 [Compound C16, hexadecyl pyrazinoate] |  |  | 97.3% | 68 min | 214 min | 21 min | 770 min | 20 to 40 µg/mL (≈ 57.4 to 115 µM) |  | 
NC(=O)c1cnccn1 [PZA, pyrazinamide, reference compound] |  |  |  |  |  |  |  | 100 µg/mL (≈ 812 µM) | bacteria recovered their ability of intracellular growth | MIC ([5]; M. tuberculosis H37Ra): 100 to 200 µg/mL
CCCCCCCCCCCCCCNC(=O)c1cnccn1 [Compound A14, N-tetradecyl pyrazinamide] | 95.2% | 96.4% |  |  |  |  |  |  |  | EE (%) incorporation efficiency [1, 6]: 98.6%
CCCCCCCCCCCCCCOC(=O)c1cnccn1 [Compound C14, tetradecyl pyrazinoate] |  |  | 98.2% | 19 min | 158 min | 4 min | 169 min | 10 to 20 µg/mL (≈ 31.2 to 62.4 µM) |  | EE (%) incorporation efficiency ([2]; lipid formulation DPPC): 97.4%; fold lower MIC values than those for PZA and POA [5]: 10 fold
CCCCCCCCCCOC(=O)c1ccccc1 [BD, decyl benzoate] | 94.1% | 93.4% |  |  |  |  |  |  |  | 

From patent publication US20100221315A1, “VESICULAR FORMULATIONS CONTAINING ORGANIC ACID PRODRUGS, PROCESS FOR THEIR PREPARATION” (UNIVERSIDADE DE LISBOA, priority 2006, published 2010)
